Values joined by “and” are separate entries in the source; they are usually repeats but may differ in a detail not shown here. Equal values may be shown once. Read-outs that look alike come from different tables or passages of the source.

The assay deals with MA15-CoV. Also on record: species or system mice. Conditions: mouse, in vivo; for decline in day 4 lung viral titers: sc.

`COc1cccc2[nH]c(C(=O)N[C@@H](CC(C)C)C(=O)N[C@@H](C[C@@H]3CCNC3=O)C(=O)CO)cc12` [parent compound, N-((1S)-1-{[((1S)-3-hydroxy-2-oxo-1-{[(3S)-2-oxopyrrolidin-3-yl]methyl}propyl)amino]carbonyl}-3-methylbutyl)-4-methoxy-1H-indole-2-carboxamide]: the “reduction of lung viral titers on day 4 post-infection” value was “≈ 2.0 log 10 and ≈ 1.5 log 10 and ~1.0 log 10”; the “weight loss and histopathologic signs of disease” value was “decreased”; the “weight loss caused by the virus” value is recorded as “reduced”. Besides, under “30 mg/kg”, the “decline in day 4 lung viral titers” value is on record as “≈ 1.5 log 10”. In addition, the “decline in day 4 lung viral titers” value (100 mg/kg) was “≈ 3 log 10”. Moreover, for the setting “300 mg/kg”, the “decline in day 4 lung viral titers” value is at least 3.5 log 10.

These data come from patent US11926642B2, “Compounds and methods for the treatment of COVID-19” (priority 2020, dated 2024).
